Reference: ChEMBL document CHEMBL1641541, “Synthesis and antitrypanosomal evaluation of derivatives of N-benzyl-1,2-dihydroquinolin-6-ols: Effect of core substitutions and salt formation” (Bioorg Med Chem, 2011)
pIC50: −log10 of the molar value. Activity calls are given as the source filed them. The rule behind the calls is not given here.

Legend:
[1] = system: L6; assay: Cytotoxicity against rat L6 cells after 70 hrs by alamar blue assay; type: cell-based; settings: L6, 70 h
[2] = system: Trypanosoma brucei; assay: Antitrypanosomal activity against bloodstream form of Trypanosoma brucei s427 after 72 hrs by MTT assay; type: functional, organism-based; settings: s427, 72 h
[3] = system: Trypanosoma brucei rhodesiense; assay: Antitrypanosomal activity against bloodstream form of Trypanosoma brucei rhodesiense STIB900 after 70 hrs by alamar blue assay; type: functional, organism-based; settings: STIB900, 70 h
[4] = system: Trypanosoma brucei rhodesiense; assay: Antitrypanosomal activity against bloodstream form of Trypanosoma brucei rhodesiense STIB900 infected in NMRI mouse assessed as suppression of parasitemia level in mouse tail blood at 5 mg/kg, ip qd for 4 consecutive days measured 5 days post infection; type: functional, organism-based; set-up: dose 5 mg/kg
[5] = system: Trypanosoma brucei rhodesiense; assay: Antitrypanosomal activity against bloodstream form of Trypanosoma brucei rhodesiense STIB900 infected in NMRI mouse assessed as day of parasitemia relapse at 50 mg/kg, ip qd for 4 consecutive days; type: functional
[6] = system: Trypanosoma brucei rhodesiense; assay: Antitrypanosomal activity against bloodstream form of Trypanosoma brucei rhodesiense STIB900 infected in NMRI mouse assessed as suppression of parasitemia level in mouse tail blood at 50 mg/kg, ip qd for 4 consecutive days measured 5 days post infection; type: functional, organism-based; set-up: dose 50 mg/kg
[7] = Chemical stability of the compound in 100 mM phosphate buffer at pH 7.4; type: physicochemical
[8] = system: Trypanosoma brucei rhodesiense; assay: Antitrypanosomal activity against bloodstream form of Trypanosoma brucei rhodesiense STIB900 infected in NMRI mouse assessed as suppression of parasitemia level in mouse tail blood at 10 mg/kg, ip qd for 4 consecutive days measured 5 days post infection; type: functional, organism-based; set-up: dose 10 mg/kg

Row | SMILES | pIC50 [1] | pIC50 [2] | pIC50 [3] | other results
1 | CC(=O)Oc1cc(C)c2c(c1)C(C)=CC(C)(C)N2Cc1ccccc1 | 4.32 | 5.04 | 4.37 | –
2 | CC1=CC(C)(C)N(Cc2ccc(F)c(F)c2)c2ccc(O)cc21 | 4.96 | 7.17 | 7.29 | –
3 | CC(=O)Oc1ccc2c(c1)C(c1ccccc1)=CC(C)(C)N2Cc1ccccc1 | 4.31 | 4.70 | 5.35 | –
4 | COc1cc(OC(C)=O)cc2c1N(Cc1ccccc1)C(C)(C)C=C2C | – | < 4.00 | – | –
5 | CC(=O)Oc1cc2c(cc1Cl)N(Cc1ccccc1)C(C)(C)C=C2C | 4.66 | 6.66 | 7.38 | –
6 | CC(=O)Oc1cc2c(cc1C)N(Cc1ccccc1)C(C)(C)C=C2C | – | 7.51 | – | –
7 | CC(=O)Oc1c(Cl)cc2c(c1Cl)C(C)=CC(C)(C)N2Cc1ccccc1 | 3.96 | 6.31 | 7.14 | –
8 | N=C(N)c1ccc(OCCCCCOc2ccc(C(=N)N)cc2)cc1 [PENTAMIDINE] | 4.60 | 7.92 | 8.89 | Activity [4]: Active
9 | CC(=O)Oc1ccc2c(c1)C(C)=CC(C)(C)N2Cc1ccccc1 | 4.74 | 7.24 | 7.92 | Activity ([5]; route intraperitoneal): 12.75 days
10 | CCOc1ccc2c(c1)C(C)=CC(C)(C)N2Cc1ccccc1 | 4.01 | – | 4.39 | Activity [5]: inactive
11 | CC(=O)Oc1ccc2c(c1)C(C)=CC(C)(C)N2Cc1ccc(F)c(F)c1 | 4.77 | 7.10 | 7.60 | –
12 | COc1ccccc1CN1c2ccc(O)cc2C(C)=CC1(C)C.Cl | 4.92 | 7.35 | 7.85 | Activity [6]: Active; Stability [7]: Unstable
13 | CCOc1ccc2c(c1)C(C)=CC(C)(C)N2Cc1ccc(F)c(F)c1 | 4.05 | – | 3.85 | Activity [5]: inactive; Activity [6]: inactive
14 | CC1=CC(C)(C)N(Cc2ccccc2)c2ccc(O)cc21.Cl | 4.96 | 7.42 | 7.89 | Activity [6]: Active; Stability [7]: Unstable
15 | CC(=O)Oc1ccc2c(c1)C(C)=CC(C)(C)N2Cc1ccc(C(C)C)cc1 | 5.00 | 6.01 | 6.55 | –
16 | N=C(N)c1ccc(/N=N/Nc2ccc(C(=N)N)cc2)cc1 [DIMINAZENE] | 5.30 | – | 8.24 | Activity [8]: Active
17 | COc1ccccc1CN1c2ccc(OC(C)=O)cc2C(C)=CC1(C)C | 4.77 | 7.39 | 7.96 | Activity [6]: Active
18 | CC(=O)Oc1cc2c(cc1-c1ccc(C(F)(F)F)cc1)N(Cc1ccccc1)C(C)(C)C=C2C | < 3.72 | 4.82 | 5.05 | –
19 | Cc1ccc(C(=O)Nc2ccc(S(=O)(=O)O)c3cc(S(=O)(=O)O)cc(S(=O)(=O)O)c23)cc1NC(=O)c1cccc(NC(=O)Nc2cccc(C(=O)Nc3cc(C(=O)Nc4ccc(S(=O)(=O)O)c5cc(S(=O)(=O)O)cc(S(=O)(=O)O)c45)ccc3C)c2)c1 [SURAMIN] | – | 6.96 | – | –
